Measurements published in PubChem BioAssay (NCI).
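Each compound was tested at five concentrations against cells in 96-well plates for 48 hours. TGI is the concentration that stops growth completely.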

Columns and labels:
Test in all cases: NCI-60 cell line screen, 48 h
[1] = system: SNB-75 CNS
[2] = system: M14 melanoma
[3] = system: SN12C renal
[4] = system: NCI-H522 lung
[5] = system: OVCAR-4 ovarian
[6] = system: HT29 colon
[7] = system: TK-10 renal
[8] = system: SF-539 CNS
[9] = system: HCT-116 colon
[10] = system: OVCAR-5 ovarian
[11] = system: CAKI-1 renal
[12] = system: HL-60(TB) leukemia
[13] = system: HCT-15 colon
[14] = system: NCI-H226 lung
[15] = system: BT-549 breast
[16] = system: UACC-62 melanoma
[17] = system: HCC-2998 colon
[18] = system: SK-MEL-5 melanoma
[19] = system: A498 renal
[20] = system: KM12 colon
[21] = system: OVCAR-3 ovarian
[22] = system: RPMI-8226 leukemia
[23] = system: SK-MEL-2 melanoma
[24] = system: SNB-19 CNS
[25] = system: T-47D breast
[26] = system: SK-OV-3 ovarian
[27] = system: 786-0 renal
[28] = system: HOP-92 NSCLC
[29] = system: HS 578T breast
[30] = system: MDA-MB-231 breast
[31] = system: K-562 leukemia
[32] = system: HOP-62 NSCLC
[33] = system: NCI-H23 lung
[34] = system: MALME-3M melanoma
[35] = system: CCRF-CEM leukemia
[36] = system: LOX IMVI melanoma
[37] = system: ACHN renal
[38] = system: MDA-MB-435
[39] = system: IGROV1 ovarian
[40] = system: UO-31 renal
[41] = system: SK-MEL-28 melanoma
[42] = system: EKVX NSCLC
[43] = system: PC-3 prostate
[44] = system: SW-620 colon
[45] = system: SR leukemia
[46] = system: MOLT-4 leukemia
[47] = system: NCI-H460 lung
[48] = system: NCI/ADR-RES ovarian
[49] = system: RXF 393 renal
[50] = system: SF-295 CNS
[51] = system: OVCAR-8 ovarian
[52] = system: SF-268 CNS
[53] = system: DU-145 prostate
[54] = system: A549 NSCLC
[55] = system: UACC-257 melanoma
[56] = system: MCF7 breast
[57] = system: COLO 205 colon
[58] = system: MDA-N
[59] = system: U251 CNS
[60] = system: DMS 273 small cell lung
[61] = system: HOP-18 NSCLC
[62] = system: DLD-1 colon
[63] = system: M19-MEL melanoma
[64] = system: KM20L2 colon
[65] = system: XF 498 CNS
[66] = system: LXFL 529 NSCLC
[67] = system: DMS 114 small cell lung

`CC(Oc1ccccc1)C(=O)NN` (stereo not drawn) was tested, and the TGI [1] was > 100 µM, the TGI [2] was > 100 µM and the TGI [3] was > 100 µM. For the same compound, the TGI [4] was > 100 µM, the TGI [5] was > 100 µM and the TGI [6] was > 100 µM. For the same compound, the TGI [7] was > 100 µM, the TGI [8] was > 100 µM and the TGI [9] was > 100 µM. For the same compound, the TGI [10] was > 100 µM, the TGI [11] was > 100 µM and the TGI [12] was > 100 µM. For the same compound, the TGI [13] was > 100 µM, the TGI [14] was > 100 µM and the TGI [15] was > 100 µM. The TGI [16] was > 100 µM, the TGI [17] was > 100 µM and the TGI [18] was > 100 µM. The TGI [19] was > 100 µM, the TGI [20] was > 100 µM and the TGI [21] was > 100 µM. The TGI [22] was > 100 µM, the TGI [23] was > 100 µM and the TGI [24] was > 100 µM. For the same compound, the TGI [25] was > 100 µM, the TGI [26] was > 100 µM and the TGI [27] was > 100 µM. For the same compound, the TGI [28] was > 100 µM, the TGI [29] was > 100 µM and the TGI [30] was > 100 µM. For the same compound, the TGI [31] was > 100 µM, the TGI [32] was > 100 µM and the TGI [33] was > 100 µM. For the same compound, the TGI [34] was > 100 µM, the TGI [35] was > 100 µM and the TGI [36] was > 100 µM. The TGI [37] was > 100 µM, the TGI [38] was > 100 µM and the TGI [39] was > 100 µM. For the same compound, the TGI [40] was > 100 µM, the TGI [41] was > 100 µM and the TGI [42] was > 100 µM. For the same compound, the TGI [43] was > 100 µM, the TGI [44] was > 100 µM and the TGI [45] was > 100 µM. The TGI [46] was > 100 µM, the TGI [47] was > 100 µM and the TGI [48] was > 100 µM. The TGI [49] was > 100 µM, the TGI [50] was > 100 µM and the TGI [51] was > 100 µM. For the same compound, the TGI [52] was > 100 µM, the TGI [53] was > 100 µM and the TGI [54] was > 100 µM. For the same compound, the TGI [55] was > 100 µM, the TGI [56] was > 100 µM and the TGI [57] was > 100 µM. The TGI [58] was > 100 µM and the TGI [59] was > 100 µM.

In the case of `C[C@@H]1CCC2[C@@H](C)[C@H](O[C@H]3O[C@@H]4O[C@@]5(C)CCC6[C@H](C)CCC([C@H]3C)[C@]64OO5)O[C@@H]3O[C@@]4(C)CCC1[C@@]23OO4` (stereo partly drawn), the TGI [1] is reported as 14.5 µM, the TGI [2] is reported as 20.6 µM and the TGI [3] is reported as 15.6 µM. It also gave a TGI [4] of 12.9 µM, a TGI [5] of 16.4 µM and a TGI [6] of 13.4 µM. For the same compound, the TGI [7] was 17.2 µM, the TGI [8] was 21.9 µM and the TGI [9] was 12.7 µM. It also gave a TGI [10] of 10.3 µM, a TGI [11] of 13.9 µM and a TGI [12] of 3.81 µM. For the same compound, the TGI [13] was 12.4 µM, the TGI [14] was 34.1 µM and the TGI [15] was 14.7 µM. The TGI [16] was 15.9 µM, the TGI [17] was 14.5 µM and the TGI [18] was 12.8 µM. For the same compound, the TGI [19] was 9.51 µM, the TGI [20] was 13.3 µM and the TGI [21] was 18.3 µM. It also gave a TGI [22] of 1.46 µM, a TGI [23] of 9.69 µM and a TGI [24] of 25.2 µM. It also gave a TGI [25] of 22.2 µM, a TGI [26] of 41.7 µM and a TGI [27] of 18 µM. It also gave a TGI [28] of 11.4 µM, a TGI [29] of 24.2 µM and a TGI [30] of 13.1 µM. For the same compound, the TGI [31] was > 100 µM, the TGI [32] was 25.5 µM and the TGI [33] was 13.3 µM. For the same compound, the TGI [34] was 19.1 µM, the TGI [35] was 18.3 µM and the TGI [36] was 1.58 µM. The TGI [37] was 14.2 µM, the TGI [38] was 21.6 µM and the TGI [39] was 18.4 µM. For the same compound, the TGI [40] was 11 µM, the TGI [41] was 27.3 µM and the TGI [42] was 18.7 µM. For the same compound, the TGI [43] was 12.5 µM, the TGI [44] was 16.5 µM and the TGI [45] was 1.28 µM. It also gave a TGI [46] of 15 µM, a TGI [47] of 17 µM and a TGI [48] of 15.5 µM. It also gave a TGI [49] of 21.4 µM, a TGI [50] of 18.8 µM and a TGI [51] of 16.7 µM. The TGI [52] was 23.8 µM, the TGI [53] was 19.5 µM and the TGI [54] was 32.3 µM. For the same compound, the TGI [55] was 18.6 µM, the TGI [56] was 25.3 µM and the TGI [57] was 0.326 µM. The TGI [58] was 19.2 µM and the TGI [59] was 23.8 µM.

`CC1=C2C(=O)C3[C@@H](CCC4=CC(=O)CC[C@@]43C)C2CC[C@]12O[C@@H]1C[C@H](C)CN[C@H]1[C@H]2C` (stereo partly drawn) was tested, and the TGI [1] was > 100 µM, the TGI [60] was 42.8 µM and the TGI [2] was > 100 µM. For the same compound, the TGI [3] was > 100 µM, the TGI [4] was 37.1 µM and the TGI [5] was > 100 µM. For the same compound, the TGI [6] was > 100 µM, the TGI [61] was > 100 µM and the TGI [7] was 98.7 µM. For the same compound, the TGI [8] was > 100 µM, the TGI [62] was > 100 µM and the TGI [63] was > 100 µM. For the same compound, the TGI [9] was > 100 µM, the TGI [11] was > 100 µM and the TGI [12] was 28.2 µM. The TGI [13] was > 100 µM, the TGI [14] was > 100 µM and the TGI [16] was 61 µM. For the same compound, the TGI [17] was > 100 µM, the TGI [18] was > 100 µM and the TGI [19] was > 100 µM. For the same compound, the TGI [20] was > 100 µM, the TGI [21] was > 100 µM and the TGI [22] was 49.7 µM. The TGI [23] was 63.2 µM, the TGI [24] was > 100 µM and the TGI [26] was > 100 µM. The TGI [27] was > 100 µM, the TGI [28] was > 100 µM and the TGI [31] was 36.4 µM. For the same compound, the TGI [32] was 68.2 µM, the TGI [64] was > 100 µM and the TGI [65] was 94.4 µM. The TGI [33] was > 100 µM, the TGI [66] was > 100 µM and the TGI [35] was 40.1 µM. The TGI [67] was 28.9 µM, the TGI [36] was > 100 µM and the TGI [37] was > 100 µM. For the same compound, the TGI [39] was > 100 µM, the TGI [40] was > 100 µM and the TGI [41] was > 100 µM. The TGI [42] was > 100 µM, the TGI [44] was > 100 µM and the TGI [45] was 43.4 µM. For the same compound, the TGI [46] was 41.4 µM, the TGI [47] was > 100 µM and the TGI [49] was > 100 µM. The TGI [50] was > 100 µM, the TGI [51] was > 100 µM and the TGI [52] was > 100 µM. For the same compound, the TGI [54] was > 100 µM, the TGI [55] was > 100 µM and the TGI [57] was > 100 µM. For the same compound, the TGI [59] was 51.5 µM.
